Reference: patent US9688659B2, “Deuterated compounds for treating hematologic malignancies, and compositions and methods thereof” (NeuForm Pharmaceuticals, Inc., priority 2015, dated 2017)

How the values were obtained:
[1] = In vivo pharmacokinetic study on cynomolgus monkeys, intravenous; conditions: for AUC Differentiation (%): D8-enasidenib vs enasidenib; for AUC: cynomolgus monkey, plasma, iv, 1 mg/kg
Description: Test compounds were dissolved to yield a final concentration at 0.2 mg/mL. The study conducted formulation analysis by HPLC. The four animals assigned to the study had body weights within ±20% of the mean body weight. The study was conducted in a cross-over matter with four phases to minimize individual difference. The dose level was 1 mg/Kg and the drug was administrated through intravenous (IV) route.
Blood samples (approximately 1.2 mL/sample) were collected from the […] vein at appropriate time points. Samples were placed in tubes containing sodium heparin and stored on ice until centrifuged. Blood samples were collected pre-dose and post-dose at post-dose 2 minutes, 5 minutes, 15 minutes, 30 minutes, 1 hour, 2 hours, 3 hours, 4 hours, 6 hours, 8 hours and 24 hours. The blood samples were centrifuged at approximately 8,000 rpm for 6 minutes at 2-8° C. Plasma samples were then collected and stored frozen at approximately −80° C. until analysis. The bioanalytical work was performed using a LC-MS/MS system.

[2] = Drug metabolism study with rat and human liver microsomes fortified with NADPH; type: in vitro ADME; conditions: 10 μM, 1 mg/mL protein, 37° C., 60 minutes
Description: This study was carried out to evaluate drug metabolism of the test compounds by rat and human microsomes. Test compounds were incubated with liver microsomes of rat (BioreclamationIVT, Lot# NNK) and human (BioreclamationIVT, Lot# HPG) at 37° C. for 60 minutes. The substrate compound concentration was at 10 μM and final protein concentration in incubation mixtures was 1 mg/mL. Reaction was stopped by adding three fold acetonitrile to the reaction mixture. The samples were vortexed and centrifuged to precipitate the proteins. The supernatants were transferred to clean tubes for drying under a stream of N2. The dried residues were reconstituted with 30% acetonitrile. Aliquots were injected into an LC/UV/MS system for metabolite ID and profiling. The LC/UV/MS system was Agilent 1100 HPLC (pumps, autosampler and PDA) interfaced to LTQ ion trap mass spectrometer (ThermoFinnigan). HPLC column was Luna C18(2) column, 250×2.0 mm, 5 The HPLC mobile phase gradient system were water and acetonitrile with 0.05% trifluoroacetic acid in both solvents.
The experimental data indicated oxidation (hydroxylation) and de-alkylation were two of major metabolism paths for enasidenib and D8-enasidenib. For oxidation on aromatic ring, the molecular weights of hydroxylation products were the original ones plus an oxygen (+16). The C—H bond of enasidenib is replaced by C—OH. For oxidation on side chains, the molecular weights of hydroxylation products are different for enasidenib vs. D8-enasidenib. For enasidenib, the C—H bond is also replaced by C—OH and the difference in molecular weights is 16. However, since D8-enasidenib loses a deuterium due to hydroxylation (C-D is replaced by C—OH), the difference of its molecular weight to the original is 15 (that is +O+H−D=15). (FIG. 2) Thus, the hydroxylation products for aromatic ring and side chain for enasidenib and D8-enasidenib can be identified.

IDH2 R140Q = biological target: T1, IDH2 R140Q (Homo sapiens, UniProt P48735, R140Q); test: IC50 measurement against IDH2 R140Q (diaphorase/resazurin detection); type: biochemical
T1 sequence (P48735 40-452 R140Q): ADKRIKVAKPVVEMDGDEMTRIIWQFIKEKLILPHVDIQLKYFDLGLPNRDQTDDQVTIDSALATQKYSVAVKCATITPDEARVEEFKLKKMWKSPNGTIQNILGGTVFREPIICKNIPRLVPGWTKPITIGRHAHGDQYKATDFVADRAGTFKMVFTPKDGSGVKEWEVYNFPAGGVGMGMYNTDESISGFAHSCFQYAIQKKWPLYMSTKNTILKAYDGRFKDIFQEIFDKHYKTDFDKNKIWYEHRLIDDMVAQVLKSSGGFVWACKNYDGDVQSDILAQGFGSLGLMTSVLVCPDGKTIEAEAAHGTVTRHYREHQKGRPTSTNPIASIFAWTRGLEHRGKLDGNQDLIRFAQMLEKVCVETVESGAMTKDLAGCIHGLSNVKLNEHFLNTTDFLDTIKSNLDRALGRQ
Description: Compounds were tested in 10-dose IC50 mode with 3-fold serial dilution at a starting concentration of 10 μM. Substrate and co-factor were 8000 μM α-Ketoglutarate and 15 μM NADPH (reduced form of nicotinamide adenine dinucleotide phosphate). The reaction was carried out by mixing compound solutions with enzyme (IDH2 R140Q) and pre-incubated for 60 minutes. Then a four-fold substrate mixture was delivered to initiate the reaction. The solutions were incubated for 45 minutes at room temperature. Detection was performed using diaphorase and resazurin and measured in Envision (Perkin-Elmer). (Ex/Em=535/590 nm).

[3] = Average of four animals, 1 mg/Kg IV, monkey
[4] = animal MK-101, 1 mg/Kg IV, monkey
[5] = animal MK-201, 1 mg/Kg IV, monkey
[6] = animal MK-301, 1 mg/Kg IV, monkey
[7] = animal MK-401, 1 mg/Kg IV, monkey

Compound	AUC Differentiation (%) ([1]; Average)	AUC Differentiation (%) ([1]; animal MK-101)	AUC Differentiation (%) ([1]; animal MK-201)	AUC Differentiation (%) ([1]; animal MK-301)	AUC Differentiation (%) ([1]; animal MK-401)	AUC [1, 3]	AUC [1, 4]	AUC [1, 5]	AUC [1, 6]	AUC [1, 7]	DMPK property over enasidenib (drug exposure AUC and half-life) ([1]; monkey, 1 mg/Kg IV)	formation of hydroxylation product on aromatic ring compared to enasidenib ([2]; FIG. 3)	hydroxylation on the side chain compared to enasidenib ([2]; FIG. 3)	formation of de-alkylation product compared to enasidenib ([2]; FIG. 4)	IC50 (IDH2 R140Q)	IC50 difference from that of enasidenib (IDH2 R140Q)
[2H]C([2H])([2H])C(O)(C([2H])([2H])[2H])C([2H])([2H])Nc1nc(Nc2ccnc(C(F)(F)F)c2)nc(-c2cccc(C(F)(F)F)n2)n1 [D8-Enasidenib]	62.0%	15.3%	69.1%	140%	23.5%	7900 ng·h/mL	8970 ng·h/mL	5810 ng·h/mL	10300 ng·h/mL	6530 ng·h/mL	superior DMPK property over enasidenib	similar	greatly reduced	significantly slowed down	360 nM	≤ 10%
CC(C)(O)CNc1nc(Nc2ccnc(C(F)(F)F)c2)nc(-c2cccc(C(F)(F)F)n2)n1 [Enasidenib, enasidenib, reference compound]	–	–	–	–	–	5200 ng·h/mL	7780 ng·h/mL	3440 ng·h/mL	4290 ng·h/mL	5290 ng·h/mL	–	–	–	–	362 nM	–
